Literature values, collected in patent publication US12454714B2, “Monbretin A (MbA) synthesis using a heterologous nucleic acid(s) encoding A MbA pathway enzyme” (The University of British Columbia, priority 2018, dated 2025).
“And” between values parts separate entries of the source, which are not always exact repeats. Identical values can stand only once. Like-named read-outs stand apart in the source and are kept apart here.

Tests used:
[1] = tested on: gut α-glucosidases; settings: selectivity versus HPA
[2] = tested on: “Zucker diabetic fatty” rats
[3] = biological target: T1, human pancreatic α-amylase (HPA) (Homo sapiens, UniProt P04746)
T1 sequence (P04746 16-511): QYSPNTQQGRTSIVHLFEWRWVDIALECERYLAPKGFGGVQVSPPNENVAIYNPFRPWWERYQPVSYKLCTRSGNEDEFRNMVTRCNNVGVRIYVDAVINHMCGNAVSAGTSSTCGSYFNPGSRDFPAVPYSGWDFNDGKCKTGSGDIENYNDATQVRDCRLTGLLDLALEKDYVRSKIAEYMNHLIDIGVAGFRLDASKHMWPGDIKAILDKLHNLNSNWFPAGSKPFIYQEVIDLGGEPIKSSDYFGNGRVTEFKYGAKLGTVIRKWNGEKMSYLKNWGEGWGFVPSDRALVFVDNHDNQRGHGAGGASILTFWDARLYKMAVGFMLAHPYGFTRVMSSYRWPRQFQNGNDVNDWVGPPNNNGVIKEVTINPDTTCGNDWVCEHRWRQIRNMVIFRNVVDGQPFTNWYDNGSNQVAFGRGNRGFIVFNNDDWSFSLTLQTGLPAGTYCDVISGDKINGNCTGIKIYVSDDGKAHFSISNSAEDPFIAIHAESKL

| SMILES | effect on the gut α-glucosidases [1] | blood-glucose-lowering activity [2] | HPA inhibition, in words [3] | Ki [3] | Ki ([3]; listed as Mini-MbA) [nM] |
| --- | --- | --- | --- | --- | --- |
| CC1OC(OC2COC(Oc3c(O)cc(-c4oc5cc(O)cc(O)c5c(=O)c4OC4OC(C)C(O)C(O)C4OC4OC(COC(=O)C=Cc5ccc(O)c(O)c5)C(O)C(O)C4OC4OC(CO)C(O)C(O)C4O)cc3O)C(O)C2O)C(O)C(O)C1O [MbA, myricetin 3-O-(glucosyl-6′-O-caffeoyl)-1,2-β-D-glucosyl 1,2-α-L-rhamnoside 4′-O-α-L-rhamnosyl 1,4-β-D-xyloside] | does not affect | effective blood-glucose-lowering | potent and selective inhibitors | 8 nM and 8.1 nM | – |
| CC1OC(Oc2c(-c3cc(O)c(O)c(O)c3)oc3cc(O)cc(O)c3c2=O)C(OC2OC(COC(=O)C=Cc3ccc(O)c(O)c3)C(O)C(O)C2OC2OC(CO)C(O)C(O)C2O)C(O)C1O [MbA-XR^2, myricetin 3-O-(glucosyl-6′-O-caffeoyl)-1,2-β-D-glucosyl 1,2-α-L-rhamnoside] | – | – | – | 42 nM | – |
| CC1OC(Oc2c(-c3cc(O)c(O)c(O)c3)oc3cc(O)cc(O)c3c2=O)C(OC2OC(COC(=O)C=Cc3ccc(O)c(O)c3)C(O)C(O)C2O)C(O)C1O [mini-MbA, myricetin 3-O-(6′-O-caffeoyl)-β-D-glucosyl 1,2-α-L-rhamnoside] | – | – | potent and selective inhibitors | 93 nM | 90 |
